Results as given in patent US12588678B2, “Oxazoline compound, synthesis method therefor and application thereof” (NANKAI UNIVERSITY, priority 2019, dated 2026).

Tests used:
[1] = tested on: Tetranychus cinnabarinus mite larvae; assay: Larvicidal activity test, dipping method on bean seedling leaves; format: in vivo; conditions: for mortality at 1 µg/mL / mortality at 10 µg/mL / mortality at 100 µg/mL / mortality at 200 µg/mL / mortality at 0.1 µg/mL / mortality at 0.001 µg/mL / mortality at 0.01 µg/mL / mortality at 0.5 µg/mL / mortality at 0.05 µg/mL: Tetranychus cinnabarinus, 96 h, checked after 4 days; for mortality at 1 µg/mL: read-out: mortality of mite larvae (%), 1 mg/L; for mortality at 10 µg/mL: read-out: mortality of mite larvae (%), 10 mg/L; for mortality at 100 µg/mL: read-out: mortality of mite larvae (%), 100 mg/L; for mortality at 200 µg/mL: read-out: mortality of mite larvae (%), 200 mg/L; for mortality at 0.1 µg/mL: read-out: mortality of mite larvae (%), 0.1 mg/L; for acaricidal activity compared with etoxazole: Tetranychus cinnabarinus eggs and larvae, etoxazole as reference; for mortality at 0.001 µg/mL: read-out: mortality of mite larvae (%), 0.001 mg/L; for mortality at 0.01 µg/mL: read-out: mortality of mite larvae (%), 0.01 mg/L; for mortality at 0.5 µg/mL: read-out: mortality of mite larvae (%), 0.5 mg/L; for mortality at 0.05 µg/mL: read-out: mortality of mite larvae (%), 0.05 mg/L
Text: (§1) The assay examples are used to illustrate the acaricidal activity against Tetranychus cinnabarinus (mortality of mite larvae and mortality of mite eggs) of the compounds having the structure represented by formula (I), and the results are shown in tables 1 to 9, where mortality of mite larvae % =(number of dead mite larvae applied/total number of mite larvae applied)×100, and mortality of mite eggs %= (number of dead mite eggs applied/total number of mite eggs applied)×100.
Tetranychus cinnabarinus bred indoors on bean seedlings was used as a test subject by the dipping method. Move adult mites onto the newly grown complete bean seedling leaves with two leaves, cut off the bean seedlings, place the bean seedlings in a greenhouse with illumination at 25° C. for laying eggs for 24 hours, then remove adult mites and keep mite eggs. And continuously culture in the greenhouse for 5 days until mite eggs hatch into mite larvae (ensuring that the number of the mites on each tested leaf is not less than 60).
Completely immerse the bean seedling leaves containing the mite larvae into the sample solution to be detected with Tween at the prepared concentration for 5-6 seconds by using tweezers, slightly throw off residual liquid, put the bean seedling leaves back to the culture cup, continuously culture for 4 days and check the result. One of the plants was immersed in a solution containing no sample to be tested and the remaining additives were identical to the sample solution as a blank control. Each compound was replicated three times.

[2] = tested on: Tetranychus cinnabarinus mite eggs; assay: Activity against mite eggs, dipping method on bean seedling leaves; format: in vivo; conditions: Tetranychus cinnabarinus, 96 h, checked after 4 days; for mortality at 0.1 µg/mL: read-out: mortality of mite eggs (%), 0.1 mg/L; for mortality at 1 µg/mL: read-out: mortality of mite eggs (%), 1 mg/L; for mortality at 10 µg/mL: read-out: mortality of mite eggs (%), 10 mg/L; for mortality at 100 µg/mL: read-out: mortality of mite eggs (%), 100 mg/L; for mortality at 200 µg/mL: read-out: mortality of mite eggs (%), 200 mg/L; for mortality at 0.001 µg/mL: read-out: mortality of mite eggs (%), 0.001 mg/L; for mortality at 0.01 µg/mL: read-out: mortality of mite eggs (%), 0.01 mg/L; for mortality at 0.5 µg/mL: read-out: mortality of mite eggs (%), 0.5 mg/L
Text: as §1
Tetranychus cinnabarinus bred indoors on bean seedlings was used as a test subject by the dipping method. Move female adult mites onto the newly grown complete bean seedling leaves with two leaves, cut off the bean seedlings, place the bean seedlings in a greenhouse with illumination at 25° C. for laying eggs for 24 hours, then remove adult mites and keep mite eggs. After continuously culturing in the greenhouse for one day, completely soak the bean seedling leaves containing the acarid eggs into the prepared sample solution to be tested for 5-6 seconds by using tweezers, slightly throw off residual liquid, put the bean seedling leaves back to the culture cup, continuously culture for 4 days and then check the result. One of the plants was immersed in a solution containing no sample to be tested and the remaining additives were identical to the sample solution as a blank control. Each compound was replicated three times.

Structure (SMILES) | mortality at 1 µg/mL [1] [%] | mortality at 10 µg/mL [1] [%] | mortality at 100 µg/mL [1] [%] | mortality at 200 µg/mL [1] [%] | mortality at 0.1 µg/mL [2] [%] | mortality at 1 µg/mL [2] [%] | mortality at 10 µg/mL [2] [%] | mortality at 100 µg/mL [2] [%] | mortality at 200 µg/mL [2] [%] | mortality at 0.1 µg/mL [1] [%] | acaricidal activity compared with etoxazole [1] | mortality at 0.001 µg/mL [1] [%] | mortality at 0.01 µg/mL [1] [%] | mortality at 0.5 µg/mL [1] [%] | mortality at 0.001 µg/mL [2] [%] | mortality at 0.01 µg/mL [2] [%] | mortality at 0.5 µg/mL [2] [%] | mortality at 0.05 µg/mL [1] [%] | mortality at 0.05 µg/mL ([2]; read-out: mortality of mite eggs (%), 0.05 mg/L) [%]
Fc1cccc(F)c1C1=NC(c2ccc(COc3cccnc3)cc2)CO1 (centres unmarked) [Compound R2-13] | 60 | 95 | 100 | 100 | 70 | 80 | 85 | 100 | 100 |  |  |  |  |  |  |  |  |  | 
Fc1cccc(F)c1C1=NC(c2ccc(COc3ccncc3)cc2)CO1 (centres unmarked) [Compound R2-14] |  |  | 65 | 90 |  |  | 50 | 100 | 100 |  |  |  |  |  |  |  |  |  | 
Fc1cccnc1OCc1ccc(C2COC(c3c(F)cccc3F)=N2)cc1 (centres unmarked) [Compound R2-15] |  | 60 | 80 | 100 |  |  | 70 | 100 | 100 |  |  |  |  |  |  |  |  |  | 
Fc1cccc(F)c1C1=NC(c2ccc(COc3ccncn3)cc2)CO1 (centres unmarked) [Compound R2-16] |  |  | 50 | 88 |  |  | 50 | 100 | 100 |  |  |  |  |  |  |  |  |  | 
Fc1cccc(F)c1C1=NC(c2ccc(COc3ncccn3)cc2)CO1 (centres unmarked) [Compound R2-17] |  |  | 60 | 90 |  |  | 70 | 100 | 100 |  |  |  |  |  |  |  |  |  | 
Fc1ccc(OCc2ccc(C3COC(c4c(F)cccc4F)=N3)cc2)cc1 (centres unmarked) [Compound R2-18] | 80 | 88 | 100 | 100 | 85 | 90 | 96 | 100 | 100 | 70 |  |  |  |  |  |  |  |  | 
Fc1cccc(F)c1C1=NC(c2ccc(COc3ccc(Cl)cc3)cc2)CO1 (centres unmarked) [Compound R2-19] | 88 | 90 | 100 | 100 |  | 90 | 100 | 100 | 100 | 85 | higher acaricidal activity than etoxazole | 8 | 30 | 72 | 10 | 32 | 80 |  | 
Fc1cccc(F)c1C1=NC(c2ccc(COc3ccc(Br)cc3)cc2)CO1 (centres unmarked) [Compound R2-20] | 40 | 80 | 92 | 100 |  | 60 | 90 | 100 | 100 |  |  |  |  |  |  |  |  |  | 
Cc1ccc(OCc2ccc(C3COC(c4c(F)cccc4F)=N3)cc2)cc1 (centres unmarked) [Compound R2-22] | 55 | 88 | 96 | 100 | 80 | 90 | 100 | 100 | 100 |  |  |  |  |  |  |  |  |  | 
Fc1cccc(F)c1C1=NC(c2ccc(COc3ccc(C(F)(F)F)cc3)cc2)CO1 (centres unmarked) [Compound R2-23] | 80 | 95 | 100 | 100 | 75 | 85 | 90 | 90 | 100 | 75 |  |  |  |  |  |  |  |  | 
Fc1cccc(F)c1C1=NC(c2ccc(COc3ccc4ccccc4c3)cc2)CO1 (centres unmarked) [Compound R2-24] | 100 | 100 | 100 | 100 | 70 | 80 | 95 | 100 | 100 | 85 | higher acaricidal activity than etoxazole | 20 | 50 | 80 | 28 | 50 | 85 |  | 
CS(=O)(=O)Oc1ccc(C2COC(c3c(F)cccc3F)=N2)cc1 (centres unmarked) [Compound R3-1] | 80 | 100 | 100 | 100 |  | 70 | 90 | 95 | 100 | 50 |  |  |  |  |  |  |  |  | 
CCS(=O)(=O)Oc1ccc(C2COC(c3c(F)cccc3F)=N2)cc1 (centres unmarked) [Compound R3-2] | 60 | 90 | 100 | 100 |  | 50 | 80 | 95 | 100 |  |  |  |  |  |  |  |  |  | 
CCCS(=O)(=O)Oc1ccc(C2COC(c3c(F)cccc3F)=N2)cc1 (centres unmarked) [Compound R3-3] | 100 | 100 | 100 | 100 | 50 | 90 | 100 | 100 | 100 | 80 | equivalent or better acaricidal activity compared with etoxazole |  |  | 95 |  |  | 75 | 40 | 20
C=CS(=O)(=O)Oc1ccc(C2COC(c3c(F)cccc3F)=N2)cc1 (centres unmarked) [Compound R3-6] | 60 | 80 | 80 | 100 |  |  | 60 | 80 | 100 |  |  |  |  |  |  |  |  |  | 
O=S(=O)(Oc1ccc(C2COC(c3c(F)cccc3F)=N2)cc1)c1ccc(F)cc1 (centres unmarked) [Compound R3-7] | 50 | 90 | 100 | 100 |  | 60 | 90 | 100 | 100 |  |  |  |  |  |  |  |  |  | 
O=S(=O)(Oc1ccc(C2COC(c3c(F)cccc3F)=N2)cc1)c1ccc(Cl)cc1 (centres unmarked) [Compound R3-8] | 85 | 98 | 100 | 100 |  | 70 | 90 | 95 | 100 | 60 |  |  |  |  |  |  |  |  | 
O=S(=O)(Oc1ccc(C2COC(c3c(F)cccc3F)=N2)cc1)c1ccc(Br)cc1 (centres unmarked) [Compound R3-9] | 100 | 100 | 100 | 100 | 30 | 75 | 90 | 100 | 100 | 70 | equivalent or better acaricidal activity compared with etoxazole |  |  | 90 |  |  | 60 | 40 | 
